The values below come from patent US20070037752A1, “Novel alanyl-amino peptidase inhibitors for functionally influencing different cells and treating immunological, inflammatory, neuronal, and other diseases” (priority 2003, published 2007).

Sequence of alanyl aminopeptidases (APN) (P15144 whole entry, species assumed): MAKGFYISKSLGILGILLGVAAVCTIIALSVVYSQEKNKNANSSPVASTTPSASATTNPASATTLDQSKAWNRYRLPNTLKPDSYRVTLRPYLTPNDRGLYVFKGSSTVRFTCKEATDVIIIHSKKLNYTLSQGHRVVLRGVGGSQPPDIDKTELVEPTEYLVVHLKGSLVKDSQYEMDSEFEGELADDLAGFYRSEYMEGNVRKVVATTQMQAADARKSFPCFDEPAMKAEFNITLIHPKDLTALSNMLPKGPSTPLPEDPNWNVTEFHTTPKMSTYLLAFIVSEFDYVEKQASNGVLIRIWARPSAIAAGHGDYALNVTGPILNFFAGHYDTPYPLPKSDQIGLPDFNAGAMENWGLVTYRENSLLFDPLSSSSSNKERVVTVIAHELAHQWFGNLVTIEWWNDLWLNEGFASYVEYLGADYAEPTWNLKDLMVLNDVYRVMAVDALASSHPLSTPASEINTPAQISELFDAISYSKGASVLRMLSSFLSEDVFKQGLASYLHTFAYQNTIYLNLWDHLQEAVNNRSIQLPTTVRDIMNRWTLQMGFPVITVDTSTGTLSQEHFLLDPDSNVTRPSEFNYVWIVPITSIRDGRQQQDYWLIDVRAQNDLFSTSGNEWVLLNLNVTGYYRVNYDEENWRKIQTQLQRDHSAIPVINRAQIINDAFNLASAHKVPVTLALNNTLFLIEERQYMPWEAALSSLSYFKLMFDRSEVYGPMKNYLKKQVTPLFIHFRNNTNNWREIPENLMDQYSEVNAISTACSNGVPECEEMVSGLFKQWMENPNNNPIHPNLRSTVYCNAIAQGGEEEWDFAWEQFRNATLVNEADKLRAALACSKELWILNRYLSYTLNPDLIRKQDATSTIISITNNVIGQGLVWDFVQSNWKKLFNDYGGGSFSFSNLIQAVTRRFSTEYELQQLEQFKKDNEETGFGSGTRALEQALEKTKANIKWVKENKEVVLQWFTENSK

One test addresses alanyl aminopeptidases (APN) (Homo sapiens, UniProt P15144). In words: Inhibition of alanyl aminopeptidase enzymatic activity, fluorogenic substrate (Ala)2-rhodamine 110. It is filed as biochemical. Particulars: Table 1, unstarred values; read-out: IC50APN. The method, then: The inhibition characteristics measured are referred to as IC-50 values or ID50 values (the latter marked with “*”) for said enzyme. The enzymatic activity was determined by means of the fluorogenic substrate/product (Ala)2-rhodamine 110.
Regarding `O=C(COc1ccc(Br)cc1)NO` [A1.004], the IC50 is 6.4 µM.

The test is the same for the next values; noted with them: Table 2; read-out: IC50APN.
For the compound `COC(=O)CCC/C=C1/SC[C@@H](NC(=O)c2ccccc2)/C1=N/O` [A2.010], the IC50 is 93.6 µM.

Staying with this test, now noted: Table 3, starred values = ID50; read-out: ID50 APN (values marked with *).
Consider `COC(=O)c1c(N)ncn1-c1ccccc1` [A3.323], for which the IC50 is 126 µM.
Take `C/C(=N\NC(=O)COc1ccc(C)cc1[N+](=O)[O-])c1ccco1` [A3.351]: the IC50 stood at 422 µM.
Take `O=C(O)CC1S/C(=N/N=C/c2ccco2)NC1=O` (stereo not drawn) [A3.254]: the IC50 was found to be 48.1 µM.
For the compound `Cc1ccc(/C=C(\NC(=O)c2ccccc2)C(=O)NCCN2CCOCC2)o1` [A3.273], the IC50 was found to be 55 µM.
In the case of `O=C(CNC(=O)c1ccccc1O)N/N=C/c1ccco1` [A3.318], the IC50 worked out at 98.8 µM.
The same measure, in the same setting: then `CN1C(=O)C(Cc2c[nH]c3ccccc23)NC1=S` (stereo not drawn) [A3.330], with 146 µM.

Staying with this test, now noted: Table 3, unstarred values; read-out: IC50APN.
Take `CCOC(=O)c1c(N)ncn1-c1ccccc1` [A3.020]: the IC50 came out at 5.4 µM.
`O=C(N/N=C\c1ccco1)c1ccc(S(=O)(=O)N2CCCCCC2)cc1` [A3.029]: the IC50 stood at 8 µM.
Consider `CCc1ccc(-c2cc(C(=O)N/N=C/c3c(C)nn(-c4ccccc4)c3C)[nH]n2)cc1` [A3.061], for which the IC50 amounted to 13.6 µM.
On the same count and under the same terms, then `O=C(N/N=C/c1ccco1)c1cccc(I)c1` [A3.212], with 34.7 µM; and `O=C(CCCOc1ccc(Cl)cc1Cl)N/N=C/c1ccco1` [A3.158], with 26.3 µM.
The same measure, in the same setting: then `Clc1ccc(-n2cc3c(-c4ccco4)nnc(-c4nc5ccccc5s4)c3n2)cc1` [A3.065], with 14.3 µM.
Take `CCOC(=O)C(NC(=O)c1ccc(OC)cc1)(N1CCCC1=O)C(F)(F)F` (stereo not drawn) [A3.257]: the IC50 amounted to 48.7 µM.
With `COc1cc(/C=N/NC(=O)c2cc(-c3ccco3)n[nH]2)cc(OC)c1OC` [A3.083], the IC50 stood at 17 µM.
The same measure, in the same setting: as for `COC(=O)C1=C(C(=O)OC)C(c2cc(Br)ccc2O)c2sc(O)nc2S1` (stereo not drawn) [A3.015], the figure is 4.7 µM; as for `Oc1ccc(Cl)cc1/N=C/c1ccc(-c2ccc(F)cc2)o1` [A3.305], 77.3 µM.
Take `O=C(N/C(=C\c1ccco1)C(=O)N1CCC(O)CC1)c1ccccc1` [A3.115]: the IC50 came out at 21.1 µM.
On to `COC(=O)c1ccc(-c2ccc(/C=C3\C(=O)N(CCCO)C(=O)C(C#N)=C3C)o2)cc1` [A3.018], for which the IC50 came to 5 µM.
Still for that read-out and setting: then `CCOC(=O)c1cc(Br)ccc1-c1ccc(/C=C2\C(=O)N=C(O)C(C#N)=C2C)o1` [A3.260], with 49.9 µM; and `Cc1ccc(/C=N/NC(=O)c2ccccc2Cl)o1` [A3.084], with 17.7 µM.
Same read-out and setting: as for `O=C(N/N=C/c1ccco1)c1cccc(NC(=O)c2ccc(F)cc2)c1` [A3.156], the figure is 25.9 µM; as for `Cn1c(=O)[nH]c2nnc(-c3cccs3)nc2c1=O` [A3.157], 26.1 µM; as for `Cc1ccc(NC(=O)/C(=C\c2ccco2)NC(=O)c2ccccc2Cl)cc1` [A3.086], 17.9 µM.
Consider `O=C(Nc1cccc(/N=C/c2cc(/N=N\c3ccccc3Cl)ccc2O)c1)c1ccco1` [A3.011], for which the IC50 was 3.6 µM.
For `COc1cc(/C=N/NC(=O)/C(=C/c2cccs2)NC(=O)c2ccccc2)cc([N+](=O)[O-])c1O` [A3.152], the IC50 worked out at 25.1 µM.
Still for that read-out and setting: then `O=C(Cc1cccs1)N/N=C\c1ccco1` [A3.329], with 143 µM; and `Cc1ccc(/C=C/C(=O)Nc2ccccc2C(N)=O)o1` [A3.245], with 45 µM.
The same measure, in the same setting: then `O=C(N/N=C1/C(=O)Nc2ccc(F)cc21)/C(=C/c1ccccc1)NC(=O)c1ccccc1` [A3.242], with 44.2 µM; and `Cc1cc(=O)[nH]c(N/N=C/c2ccco2)n1` [A3.088], with 18.2 µM; and `O=C(N/N=C/C=C\c1ccco1)c1cccs1` [A3.282], with 62.7 µM.
Same read-out and setting: as for `CCOC(=O)c1ncn(C)c1N` [A3.262], the figure is 50.1 µM; as for `COc1c(OCC(O)C(C)(C)O)ccc2c1N=C1OC=CC1C2OC` (stereo not drawn) [A3.321], 125 µM.
On to `O=C(COc1ccccc1)N/N=C/c1ccco1` [A3.312], for which the IC50 is 87.5 µM.

Staying with this test, now noted: Table 4, starred values = ID50; read-out: ID50 APN (values marked with *).
In the case of `COc1ccc(C(=O)N/N=C\c2cc(Br)c(O)c(O)c2Br)cc1` [A4.124], the IC50 was 39.7 µM.
Consider `COc1ccc(CSCC(=O)N/N=C/c2ccco2)cc1` [A4.157], for which the IC50 worked out at 66 µM.
For the compound `Cn1cccc1CC(=O)N/N=C\c1ccco1` [A4.174], the IC50 worked out at 113 µM.

The same test, now with this note: Table 4, unstarred values; read-out: IC50APN.
On to `Cc1cccc(NCC(=O)N/N=C/c2cc(Br)c(O)c(O)c2Br)c1` [A4.012], for which the IC50 was determined as 7.8 µM.
Same read-out and setting: as for `O=C(COc1ccc2ccccc2c1)N/N=C/c1c(Br)cc(Br)c(O)c1Br` [A4.059], the figure is 21 µM; as for `Cc1ccc(/C=N/NC(=O)c2cccc(Cl)c2)o1` [A4.015], 10.5 µM.
Regarding `Cc1occc1C(=O)N/N=C/C=C\c1ccco1` [A4.098], the IC50 was determined as 31 µM.
Same read-out and setting: as for `O=C(N/N=C/c1ccco1)c1cccc(NC(=O)c2ccc(F)cc2)c1` [A4.080], the figure is 25.9 µM.
On the same count and under the same terms, then `Cc1c(Cl)cccc1NC(=O)C(=O)N/N=C/c1c(OCc2ccccc2)ccc2ccccc12` [A4.006], with 6.6 µM; and `O=C(N/N=C/c1cc(Br)ccc1OC(=O)c1ccc([N+](=O)[O-])cc1)/C(=C\c1ccc2c(c1)OCO2)NC(=O)c1ccccc1` [A4.146], with 54.2 µM.
Still for that read-out and setting: as for `Nc1nonc1-n1nnc(C(=O)N/N=C/c2ccco2)c1-c1ccccc1` [A4.135], the figure is 46.6 µM; as for `Cc1cc(C)cc(OCC(=O)N/N=C/c2ccco2)c1` [A4.070], 23.4 µM.

The same test, now with this note: Table 6; read-out: IC50APN.
Take `Cc1ccc(S(=O)(=O)N(Cc2ccc(Cl)cc2)c2ccccc2C(=O)N/N=C/c2ccco2)cc1` [A6.008]: the IC50 stood at 16.4 µM.
On to `COc1ccc(C(=O)Nc2ccc(S(=O)(=O)N3CCCCC3)cc2)cc1` [A6.001], for which the IC50 was determined as 8.4 µM.

Staying with this test, now noted: Table 8, unstarred values; read-out: IC50APN.
In the case of `C/C(=N\N=C1\SC(CC(=O)O)C(=O)N1c1ccccc1)c1ccco1` (stereo not drawn) [A8.026], the IC50 amounted to 28.6 µM.
With `CCOC(=O)N1CCc2c(sc(NC(=O)c3ccc(F)cc3)c2C(=O)Nc2ccc(Br)cc2)C1` [A8.005], the IC50 worked out at 7.3 µM.

The same test, now with this note: Table 9, starred values = ID50; read-out: ID50 APN (values marked with *).
With `CCc1ccc(NC(=O)C2CCN(S(=O)(=O)c3ccc(Cl)cc3)CC2)cc1` [A9.114], the IC50 is 80.4 µM.

The same test, now with this note: Table 9, unstarred values; read-out: IC50APN.
Turning to `COc1ccc(C[C@@H](N)C(=O)N[C@H]2[C@H](O)[C@H](n3cnc4c(N(C)C)ncnc43)O[C@@H]2CO)cc1` [A9.050], the IC50 was 20.9 µM.
Turning to `CN(C)c1c(Cl)cc(/C(=N/O)N2CCOCC2)cc1Cl` [A9.054], the IC50 turned out to be 21.4 µM.
Still for that read-out and setting: as for `CO/N=C(\c1nonc1N)N1CCN(c2ccc([N+](=O)[O-])cc2Cl)CC1` [A9.045], the figure is 19.2 µM; as for `O=C(/C=C/c1ccco1)Nc1ccc(OCC(=O)N2CCOCC2)cc1` [A9.056], 21.9 µM.
Same read-out and setting: then `CCCOC(=O)c1cc(-c2ccc(/C=C3/C(=O)N(CC(C)O)C(=O)C(C#N)=C3C)o2)ccc1Cl` (stereo not drawn) [A9.083], with 32 µM.
For `Cc1ccc(C(=O)N/C(=C\c2ccco2)C(=O)N2CCSCC2)cc1C` [A9.109], the IC50 stood at 68.9 µM.

The same test, now with this note: Table 11; read-out: IC50APN.
Regarding `O=C(Nc1ccccc1F)c1ccc([N+](=O)[O-])o1` [A11.034], the IC50 came out at 62.4 µM.

The test is the same for the next values; noted with them: Table 12; read-out: IC50APN.
In the case of `O=C(CCOC(c1ccc(F)cc1)c1ccc(F)cc1)NO` [A12.041], the IC50 is 21.8 µM.
Still for that read-out and setting: as for `O=C1Nc2cc(C(=O)N3CCN(c4ccccc4)CC3)ccc2NC1CSCc1ccccc1F` (stereo not drawn) [A12.065], the figure is 61.5 µM.

The test is the same for the next values; noted with them: Table 13; read-out: IC50APN.
With `N#C/C(=C\c1ccc(N2Cc3ccccc3C2)cc1)C(=O)NCC1CCCO1` (stereo not drawn) [A13.013], the IC50 came out at 28.1 µM.

The test is the same for the next values; noted with them: Table 14.
Turning to `COC(=O)C1=C(N)N2C(=O)CSC2=C(C(=O)OC)C1` [A14.001], the IC50APN result was ““positively very highly active”, means beyond measurement- scale””.
